EC (150% of control) and melting point data for 14 compounds are collected here from patent US9464049B2, “Indole-carboxamides” (Hoffmann-La Roche Inc., priority 2013, dated 2016).

Data set [1] relates to human embryonic stem cell derived neural stem cells (NSCs). Nature of the data set: Neural stem cell proliferation assay (neurogenesis assay, ATP levels by CellTiterGlo). In kind it is cell-based. As to conditions: Homo sapiens, Neural stem cell, 96 h; compound concentration at which 150% activity of control (100%) is reached; NSC proliferation by ATP (CellTiterGlo) after 4 days incubation; dose response 8 μM to 8 nM. On the procedure:
Neural Stem Cell Proliferation Assay
Neurogenic properties of small molecules are determined based on the proliferation of human embryonic stem cell derived neural stem cells (NSCs) which were derived via a dual smad inhibition as previously described (Chambers, S. M., et al., Highly efficient neural conversion of human ES and iPS cells by dual inhibition of SMAD signaling, Nature biotechnology, 2009. 27(3): p. 275-80.)
Compounds respond is measured by the increase in cells based on ATP levels (Promega:CellTiterGlo®) after an incubation period of 4 days.
NSCs are thawed and expanded over 3 passages. On the 14th day, NSCs are seeded in Polyornithin/Laminin coated 384 well plates at a cell density of 21,000 cells/cm^2 in a media volume of 38 μl.
4 hours after cell seeding, compound solutions are added at a volume of 2 μl. Stock solutions of the compounds (water, 5% DMSO) are diluted to obtain a dose response (11 points, dilution factor is 2), ranging from 8 μM to 8 nM. Controls are run to consistently determine the neurogenic properties of the cells: • Negative (neutral) control is cell culture Media (final DMSO concentration: 0.25%). • Positive controls are: • 1. cell culture Media+100 ng/ml FGF2 (final DMSO concentration: 0.1%) • 2. cell culture Media+20 ng/ml EGF (final DMSO concentration: 0.1%) • 3. cell culture Media+100 ng/ml Wnt3a (final DMSO concentration: 0.1%)
After 4 days incubation at 37° C., 5% CO2, the amount of ATP per well is quantified. The ATP concentration is proportional to the cell number. ATP is quantified by using the Promega CellTiterGlo® kit. The CellTiterGlo® reagents contain a cell lysis buffer, a thermo stable luciferase (UltraGlo™ recombinant luciferase), magnesium and luciferin. Luciferin reacts with ATP producing oxyluciferin, AMP and light. The luminescence signal is proportional to the ATP content.
The value of negative (neutral) control is determined for each assay plate by taking the average of 16 negative control wells. The neurogenic compound response is calculated for each compound as (compound/Negative Control)*100.
The values of EC150 from the dose response curve are determined for each test compound. The EC150 is the compound concentration at which 150% activity of control (100%) is reached.
A general note: In ATP-based viability assays light output follows the ATP content of the culture.

One may read the melting point as the temperature, or range, at which the solid turns liquid. In turn, `Cn1c(C(N)=O)cc2cc(C#N)cc(-c3ccc(Cl)cc3Cl)c21` [Example 63, 5-Cyano-7-(2,4-dichlorophenyl)-1-methylindole-2-carboxamide] yielded a melting point of 222.5 °C. This compound came in with an EC (150% of control) in data set [1] of 0.21 µM.

In turn, `Cc1c(C(N)=O)n(C)c2c(-c3ccc(F)cc3F)cc(F)cc12` [Example 64, 7-(2,4-Difluorophenyl)-5-fluoro-1,3-dimethylindole-2-carboxamide] returned a melting point of 192 °C. The EC (150% of control) in data set [1] turned out to be 0.091 µM.

The compound `Cc1cc(-c2cc(C#N)cc3cc(C(N)=O)[nH]c23)ccc1F` [Example 66, 5-Cyano-7-(4-fluoro-3-methylphenyl)-1H-indole-2-carboxamide] came in with a melting point of 247 °C. For the same compound, in data set [1], the EC (150% of control) was determined as 0.62 µM.

`Cn1c(C(N)=O)cc2cc(C#N)cc(-c3ccc([N+](=O)[O-])cc3)c21` [Example 67, 5-Cyano-1-methyl-7-(4-nitrophenyl)-indole-2-carboxamide] had a melting point of 236 °C. In data set [1], the EC (150% of control) came to 2.05 µM.

For `N#Cc1cc(-c2ccc([N+](=O)[O-])cc2)c2[nH]c(C(N)=O)cc2c1` [Example 68, 5-Cyano-7-(4-nitrophenyl)-1H-indole-2-carboxamide], the melting point was determined as 269 °C. This compound came in with an EC (150% of control) in data set [1] of 0.071 µM.

Turning to `N#Cc1cc(-c2ccnc(Cl)c2)c2[nH]c(C(N)=O)cc2c1` [Example 70, 7-(2-Chloropyridin-4-yl)-5-cyano-1H-indole-2-carboxamide], the melting point came out at 297 °C. In addition, the EC (150% of control) in data set [1] was 0.14 µM.

For `COc1ccc(-c2cc(C#N)cc3cc(C(N)=O)n(C)c23)cc1` [Example 71, 5-Cyano-7-(4-methoxyphenyl)-1-methylindole-2-carboxamide], the melting point came out at 206.5 °C. This compound also yielded an EC (150% of control) in data set [1] of 0.21 µM.

`COc1ccc(-c2cc(C#N)cc3cc(C(N)=O)[nH]c23)cc1` [Example 72, 5-Cyano-7-(4-methoxyphenyl)-1H-indole-2-carboxamide] yielded a melting point of 255 °C. For the same compound, the EC (150% of control) in data set [1] amounted to 0.19 µM.

Consider `Cn1c(C(N)=O)cc2cc(C#N)cc(-c3ccc(OC(F)(F)F)cc3)c21` [Example 73, 5-Cyano-1-methyl-7-[4-(trifluoromethoxy)phenyl]indole-2-carboxamide], for which the melting point turned out to be 176 °C. The same compound displayed an EC (150% of control) in data set [1] of 7.5 µM.

In the case of `Cc1ccc(-c2cc(F)cc3c(C)c(C(N)=O)[nH]c23)cc1` [Example 74, 5-Fluoro-3-methyl-7-(4-methylphenyl)-1H-indole-2-carboxamide], the melting point was 192 °C. In data set [1], this compound came in with an EC (150% of control) of 0.17 µM.

`Cc1c(C(N)=O)[nH]c2c(-c3ccc(F)c(F)c3F)cc(F)cc12` [Example 75, 5-Fluoro-3-methyl-7-(2,3,4-trifluorophenyl)-1H-indole-2-carboxamide] yielded a melting point of 209 °C. The compound also yielded an EC (150% of control) in data set [1] of 0.082 µM.

In the case of `COc1ccc(-c2cc(F)cc3c(C)c(C(N)=O)[nH]c23)cc1` [Example 76, 5-Fluoro-7-(4-methoxyphenyl)-3-methyl-1H-indole-2-carboxamide], the melting point amounted to 217 °C. This compound gave an EC (150% of control) in data set [1] of 0.009 µM.

`Cc1c(C(N)=O)[nH]c2c(-c3ccc(Cl)cc3F)cc(F)cc12` [Example 77, 7-(4-Chloro-2-fluorophenyl)-5-fluoro-3-methyl-1H-indole-2-carboxamide] returned a melting point of 216 °C. This compound returned an EC (150% of control) in data set [1] of 0.022 µM.

On to `Cc1c(C(N)=O)[nH]c2c(-c3ccncc3)cc(F)cc12` [Example 78, 5-Fluoro-3-methyl-7-pyridin-4-yl-1H-indole-2-carboxamide], for which the melting point was determined as 270 °C. Besides, the EC (150% of control) in data set [1] came to 0.053 µM.
